From PMC3776780, “Dual p38/JNK Mitogen Activated Protein Kinase Inhibitors Prevent Ozone-Induced Airway Hyperreactivity in Guinea Pigs” (PLoS ONE, 2013) come the findings set out here.

The target of the experiment is ITK (Homo sapiens, UniProt Q08881). The experiment is described as follows: spectrophotometric coupled-enzyme kinase inhibition assay. It is filed as biochemical. Particulars: read-out: Ki or IC50 ITK. The essentials: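 Steps: kinase (10–40 nM) plus inhibitor, 10 min at 30°C in HEPES pH 7.5 buffer containing PEP, NADH, pyruvate kinase, lactate dehydrogenase and EGF receptor peptide (200 µM–500 µM); start with ATP at Km; read 340 nm absorbance loss for 10 min; fit rate versus concentration for IC50 or Ki.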
ITK, sequence (Q08881 whole entry, species assumed): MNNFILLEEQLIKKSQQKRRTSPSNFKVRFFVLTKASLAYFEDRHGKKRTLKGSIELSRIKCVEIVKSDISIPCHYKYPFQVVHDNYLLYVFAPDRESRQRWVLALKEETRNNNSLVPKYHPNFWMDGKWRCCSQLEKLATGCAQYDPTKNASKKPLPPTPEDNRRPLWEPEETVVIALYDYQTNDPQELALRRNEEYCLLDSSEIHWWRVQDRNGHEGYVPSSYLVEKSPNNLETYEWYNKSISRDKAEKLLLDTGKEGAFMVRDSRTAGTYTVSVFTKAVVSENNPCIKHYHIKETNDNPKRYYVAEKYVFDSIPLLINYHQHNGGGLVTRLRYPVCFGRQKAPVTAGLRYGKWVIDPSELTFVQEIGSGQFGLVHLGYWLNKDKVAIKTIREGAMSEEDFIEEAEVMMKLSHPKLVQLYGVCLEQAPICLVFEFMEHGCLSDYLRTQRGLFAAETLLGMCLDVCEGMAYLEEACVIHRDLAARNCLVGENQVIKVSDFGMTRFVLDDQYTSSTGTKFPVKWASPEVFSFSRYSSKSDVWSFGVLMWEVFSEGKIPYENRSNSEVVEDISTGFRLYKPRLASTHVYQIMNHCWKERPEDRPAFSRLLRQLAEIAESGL

With `OC1CCN(Cc2onc(-c3ccc(F)cc3)c2-c2ccnc(NC3CCCCC3)n2)CC1` [V-05-013], the Ki was > 1 µM.
